Experimental data taken from patent US20090029996A1, “Pyridazin-3(2H)-One Derivatives And Their Use As Pde4 Inhibitors” (priority 2004, published 2009).
pIC50: −log10 of the molar value.

Molecular target: PDE4 (Homo sapiens, UniProt Q07343)
Experiment: PDE4 Assay Procedure ([3H]-cAMP SPA)
Type: biochemical
Conditions: 15 nM [3H]-cAMP, 1 hour at room temperature, SPA beads; read-out: HPDE4B or IC50 PDE4
Description: Compounds to be tested were resuspended in DMSO at a stock concentration of 1 mM. […] These dilutions were done in 96-well plates. In some cases, plates containing diluted compounds were frozen before being assayed. In these cases, the plates were thawed at room temperature and stirred for 15 minutes.
Ten microliters of the diluted compounds were poured into a “low binding” assay plate. […] The reaction was initiated by adding ten microliters of a solution containing PDE4. The plate was then incubated under stirring for 1 hour at room temperature. After incubation the reaction was stopped with 50 microlitres of SPA beads, and the reaction was allowed to incubate for another 20 minutes at room temperature before measuring radioactivity using standard instrumentation.
The reaction mixture was prepared by adding 90 ml of H2O to 10 ml of 10× assay buffer (500 mM Tris pH 7.5, 83 mM MgCl2, 17 mM EGTA), and 40 microlitres 1 μCi/μL [3H]-cAMP. SPA beads solution was prepared by adding 500 mg to […] H2O for a final concentration of 20 mg/ml beads and 18 mM zinc sulphate.

Sequence of PDE4 (Q07343 324-700 limits assumed): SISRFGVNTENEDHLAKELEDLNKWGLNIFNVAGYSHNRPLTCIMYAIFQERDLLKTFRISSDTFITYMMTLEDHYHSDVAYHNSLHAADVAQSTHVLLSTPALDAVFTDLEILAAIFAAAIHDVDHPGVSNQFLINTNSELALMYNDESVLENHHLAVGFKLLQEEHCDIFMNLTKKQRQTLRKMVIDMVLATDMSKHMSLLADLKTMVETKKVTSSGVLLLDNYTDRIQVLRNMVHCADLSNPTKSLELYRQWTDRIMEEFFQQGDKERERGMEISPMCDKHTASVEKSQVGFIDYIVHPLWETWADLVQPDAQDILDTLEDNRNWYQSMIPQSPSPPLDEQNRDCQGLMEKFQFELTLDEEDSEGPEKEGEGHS

Structure (SMILES) | pIC50
CCn1nc(-c2ccccc2)c(C(=O)OCC(=O)OCc2ccccc2)c(Nc2cccnc2)c1=O [Example 16, 2-(Benzyloxy)-2-oxoethyl 1-ethyl-6-oxo-3-phenyl-5-(pyridin-3-ylamino)-1,6-dihydropyridazine-4-carboxylate] | 9.66
CCCC(=O)OCOC(=O)c1c(-c2ccccc2)nn(CC)c(=O)c1Nc1cccnc1 [Example 17, (Butyryloxy)methyl 1-ethyl-6-oxo-3-phenyl-5-(pyridin-3-ylamino)-1,6-dihydropyridazine-4-carboxylate] | 8.44
CCn1nc(-c2ccccc2)c(C(=O)OC2OC(=O)c3ccccc32)c(Nc2cccnc2)c1=O (stereo not drawn) [Example 18, 3-Oxo-1,3-dihydro-2-benzofuran-1-yl 1-ethyl-6-oxo-3-phenyl-5-(pyridin-3-ylamino)-1,6-dihydropyridazine-4-carboxylate] | 8.68
CCn1nc(-c2ccccc2)c(C(=O)OCOC(C)=O)c(Nc2cccnc2)c1=O [Example 19, (Acetyloxy)methyl 1-ethyl-6-oxo-3-phenyl-5-(pyridin-3-ylamino)-1,6-dihydropyridazine-4-carboxylate] | 7.96
CCn1nc(-c2ccccc2)c(C(=O)OCOC(=O)C(C)(C)C)c(Nc2cccnc2)c1=O [Example 23, [(2,2-Dimethylpropanoyl)oxy]methyl 1-ethyl-6-oxo-3-phenyl-5-(pyridin-3-ylamino)-1,6-dihydropyridazine-4-carboxylate] | 9.03
CCn1nc(-c2ccccc2)c(C(=O)OCOC(=O)C(C)(C)C)c(Nc2cnccc2C)c1=O [Example 26, [(2,2-dimethylpropanoyl)oxy]methyl 1-ethyl-5-[(4-methylpyridin-3-yl)amino]-6-oxo-3-phenyl-1,6-dihydropyridazine-4-carboxylate] | 8.64
CCOC(=O)OC(C)OC(=O)c1c(-c2ccccc2)nn(CC)c(=O)c1Nc1cnccc1C (stereo not drawn) [Example 27, 1-[(Ethoxycarbonyl)oxy]ethyl 1-ethyl-5-[(4-methylpyridin-3-yl)amino]-6-oxo-3-phenyl-1,6-dihydropyridazine-4-carboxylate] | 8.04
CCn1nc(-c2ccccc2)c(C(=O)OCOC(=O)C(C)(C)C)c(Nc2cncc3ccccc23)c1=O [Example 31, [(2,2-Dimethylpropanoyl)oxy]methyl 1-ethyl-5-(isoquinolin-4-ylamino)-6-oxo-3-phenyl-1,6-dihydropyridazine-4-carboxylate] | 10.15
CCn1nc(-c2cccc(C)c2)c(C(=O)OCOC(=O)C(C)(C)C)c(Nc2cccnc2)c1=O [Example 35, [(2,2-Dimethylpropanoyl)oxy]methyl 1-ethyl-3-(3-methylphenyl)-6-oxo-5-(pyridin-3-ylamino)-1,6-dihydropyridazine-4-carboxylate] | 8.66
CCn1nc(-c2ccc(C)cc2)c(C(=O)OCOC(=O)C(C)(C)C)c(Nc2cccnc2)c1=O [Example 68, [(2,2-Dimethylpropanoyl)oxy]methyl 1-ethyl-3-(4-methylphenyl)-6-oxo-5-(pyridin-3-ylamino)-1,6-dihydropyridazine-4-carboxylate] | 8.24

Other lines, results leading:

pIC50 | Structure (SMILES)
9.52 | CCn1nc(-c2ccccc2)c(C(=O)OC(C)OC(=O)OC2CCCCC2)c(Nc2cccnc2)c1=O (single isomer, unassigned; (-)) [Example 132, (−)-1-{[(Cyclohexyloxy)carbonyl]oxy}ethyl 1-ethyl-6-oxo-3-phenyl-5-(pyridin-3-ylamino)-1,6-dihydropyridazine-4-carboxylate]
8.34 | CCn1nc(-c2ccccc2)c(C(=O)OC(C)OC(=O)OC2CCCCC2)c(Nc2cnccc2C)c1=O (stereo not drawn) [Example 76, 1-{[(Cyclohexyloxy)carbonyl]oxy}ethyl 1-ethyl-5-[(4-methylpyridin-3-yl)amino]-6-oxo-3-phenyl-1,6-dihydropyridazine-4-carboxylate]
8.47 | CCOC(=O)COC(=O)c1c(-c2ccsc2)nn(CC)c(=O)c1Nc1cnccc1C [Example 122, 2-Ethoxy-2-oxoethyl 1-ethyl-5-[(4-methylpyridin-3-yl)amino]-6-oxo-3-(3-thienyl)-1,6-dihydropyridazine-4-carboxylate]
8.92 | CCn1nc(-c2ccccc2)c(C(=O)OCc2oc(=O)oc2C)c(Nc2cnccc2C)c1=O [Example 142, (5-Methyl-2-oxo-1,3-dioxol-4-yl)methyl 1-ethyl-5-[(4-methylpyridin-3-yl)amino]-6-oxo-3-phenyl-1,6-dihydropyridazine-4-carboxylate]
10.00 | CCn1nc(-c2ccccc2)c(C(=O)OCCl)c(Nc2cncc3ccccc23)c1=O [Example 164, Chloromethyl 1-ethyl-5-(isoquinolin-4-ylamino)-6-oxo-3-phenyl-1,6-dihydropyridazine-4-carboxylate]
